Measured values reported in publication PMC4457932, “Characterization of Spirometra erinaceieuropaei Plerocercoid Cysteine Protease and Potential Application for Serodiagnosis of Sparganosis” (PLoS Neglected Tropical Diseases, 2015).
Residues, ends and D or L forms follow the SMILES beside them. *: point of attachment. AMC = Cc1cc(=O)oc2cc(N*)ccc12; Cbz = O=C(OCc1ccccc1)*

How the values were obtained:
rSeCP [1] = molecular target: T1, rSeCP (Spirometra erinaceieuropaei, UniProt O02586); assay: fluorogenic peptidase assay, Z-Phe-Arg-AMC; type: biochemical
T1 construct: MBP fusion (pMAL-c2X, E. coli TB1), 19-residue signal peptide omitted, proform 36 kDa plus MBP 43 kDa, 79 kDa, tag kept; full-length ORF 336 residues
T1 sequence (O02586 entry or part of it): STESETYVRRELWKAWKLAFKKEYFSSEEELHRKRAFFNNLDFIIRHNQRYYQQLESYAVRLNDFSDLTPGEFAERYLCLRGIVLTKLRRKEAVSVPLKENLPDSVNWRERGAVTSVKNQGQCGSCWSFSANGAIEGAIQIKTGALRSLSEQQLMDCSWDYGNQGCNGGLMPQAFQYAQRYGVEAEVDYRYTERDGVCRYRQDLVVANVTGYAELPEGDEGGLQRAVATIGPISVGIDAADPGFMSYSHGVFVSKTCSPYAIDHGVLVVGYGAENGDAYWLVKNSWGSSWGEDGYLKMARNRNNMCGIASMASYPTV
Source text: fluorogenic peptidase assay, Z-Phe-Arg-AMC on rSeCP

rSeCP [2] = molecular target: T1, rSeCP; assay: AMC fluorescence, […] nm; type: biochemical; conditions: 3 μM substrate, 100 mM sodium acetate, 5 mM DTT, pH 5.5, 37°C

Compound	activity at 5 µM (rSeCP [1]) [%]	AMC fluorescence, 355/460 nm (rSeCP [2])
CC(C)C[C@H](NC(=O)[C@H]1O[C@@H]1C(=O)O)C(=O)NCCCCN=C(N)N [E-64, L-trans-epoxysuccinyl-leucylamide (4-guanidino) butane]	0.8	–
Cc1cc(=O)oc2cc(NC(=O)[C@H](CCCNC(=N)N)NC(=O)[C@H](Cc3ccccc3)NC(=O)OCc3ccccc3)ccc12 [Z-Phe-Arg-AMC, Z-carbobenzoxy-L-phenylalanyl-L-arginine-(7-amino-4-methylcoumarin)] (Cbz-Phe-Arg-{AMC})	–	determined by cleavage of the fluorescent substrate Z-carbobenzoxy-L-phenylalanyl-L-arginine-(7-amino-4-methylcoumarin) (Z-Phe-Arg-AMC, Sigma)
